According to BindingDB's records for doi:10.1124/jpet.102.047092 (Case Western Reserve University, 2003):

How the values were obtained:
[1] = target: Sodium-dependent serotonin transporter (Homo sapiens, UniProt P31645)
[2] = target: T1, Alpha-2B adrenergic receptor (Homo sapiens, UniProt P18089)
T1 sequence (P18089 whole entry): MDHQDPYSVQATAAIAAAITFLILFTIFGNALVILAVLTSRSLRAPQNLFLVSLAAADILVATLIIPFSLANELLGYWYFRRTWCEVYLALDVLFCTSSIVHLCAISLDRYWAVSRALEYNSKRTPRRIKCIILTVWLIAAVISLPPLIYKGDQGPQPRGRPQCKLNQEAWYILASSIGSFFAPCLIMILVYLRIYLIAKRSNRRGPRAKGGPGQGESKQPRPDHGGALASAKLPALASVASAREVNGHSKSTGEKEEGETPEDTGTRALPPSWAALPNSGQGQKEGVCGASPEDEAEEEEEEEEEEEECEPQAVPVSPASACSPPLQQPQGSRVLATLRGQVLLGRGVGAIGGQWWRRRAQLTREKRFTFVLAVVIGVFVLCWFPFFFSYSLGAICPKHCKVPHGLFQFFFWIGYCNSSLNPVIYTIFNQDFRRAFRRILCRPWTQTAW

Histamine H1 receptor = Histamine H1 receptor (Rattus norvegicus, UniProt P31390)
[3] = target: 5-hydroxytryptamine receptor 1D (Homo sapiens, UniProt P28221)
Vasopressin V2 receptor = Vasopressin V2 receptor (Homo sapiens, UniProt P30518)
Histamine H2 receptor = Histamine H2 receptor (Homo sapiens, UniProt P25021)
[4] = target: Neuronal acetylcholine receptor subunit alpha-4 (Rattus norvegicus, UniProt P09483)
Cannabinoid receptor 1 = Cannabinoid receptor 1 (Rattus norvegicus, UniProt P20272)
[5] = target: Metabotropic glutamate receptor 1 (Rattus norvegicus, UniProt P23385)
[6] = target: Metabotropic glutamate receptor 5 (Rattus norvegicus, UniProt P31424)
[7] = target: Metabotropic glutamate receptor 8 (Rattus norvegicus, UniProt P70579)
[8] = target: Metabotropic glutamate receptor 6 (Rattus norvegicus, UniProt P35349)
[9] = target: Metabotropic glutamate receptor 2 (Rattus norvegicus) (UniProt P31421)
[10] = target: Metabotropic glutamate receptor 4 (Rattus norvegicus, UniProt P31423)

Metabotropic glutamate receptor 5, sequence (P31424 whole entry): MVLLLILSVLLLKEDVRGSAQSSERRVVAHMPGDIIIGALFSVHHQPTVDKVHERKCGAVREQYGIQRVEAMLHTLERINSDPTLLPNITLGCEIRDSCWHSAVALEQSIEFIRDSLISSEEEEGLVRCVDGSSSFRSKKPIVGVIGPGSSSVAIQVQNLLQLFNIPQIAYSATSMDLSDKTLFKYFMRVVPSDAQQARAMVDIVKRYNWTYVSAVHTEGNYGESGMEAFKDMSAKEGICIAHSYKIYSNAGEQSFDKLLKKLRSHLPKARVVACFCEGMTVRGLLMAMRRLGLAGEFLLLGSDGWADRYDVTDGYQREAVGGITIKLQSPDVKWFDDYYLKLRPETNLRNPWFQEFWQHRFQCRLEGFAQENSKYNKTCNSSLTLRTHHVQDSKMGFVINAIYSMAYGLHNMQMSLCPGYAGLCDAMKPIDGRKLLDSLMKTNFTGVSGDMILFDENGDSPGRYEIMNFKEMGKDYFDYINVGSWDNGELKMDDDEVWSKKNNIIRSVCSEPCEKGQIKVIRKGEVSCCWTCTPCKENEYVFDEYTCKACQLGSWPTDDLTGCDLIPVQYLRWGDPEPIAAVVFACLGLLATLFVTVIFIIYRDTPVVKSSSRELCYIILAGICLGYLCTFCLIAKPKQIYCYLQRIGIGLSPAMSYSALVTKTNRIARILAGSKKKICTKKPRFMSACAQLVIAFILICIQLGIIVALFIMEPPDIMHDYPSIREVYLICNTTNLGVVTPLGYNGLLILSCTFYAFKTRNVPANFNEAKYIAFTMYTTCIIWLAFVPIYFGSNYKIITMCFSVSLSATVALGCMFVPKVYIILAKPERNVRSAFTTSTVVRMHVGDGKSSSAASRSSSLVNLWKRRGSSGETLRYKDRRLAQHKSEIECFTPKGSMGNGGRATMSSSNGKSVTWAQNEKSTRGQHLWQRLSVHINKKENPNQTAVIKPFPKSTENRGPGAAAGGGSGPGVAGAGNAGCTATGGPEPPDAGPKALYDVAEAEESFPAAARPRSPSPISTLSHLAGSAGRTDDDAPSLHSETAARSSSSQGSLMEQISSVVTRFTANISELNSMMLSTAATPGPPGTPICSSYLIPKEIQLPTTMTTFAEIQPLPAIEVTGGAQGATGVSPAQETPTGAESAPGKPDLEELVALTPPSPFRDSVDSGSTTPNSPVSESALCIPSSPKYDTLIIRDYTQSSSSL
Metabotropic glutamate receptor 8, sequence (P70579 whole entry): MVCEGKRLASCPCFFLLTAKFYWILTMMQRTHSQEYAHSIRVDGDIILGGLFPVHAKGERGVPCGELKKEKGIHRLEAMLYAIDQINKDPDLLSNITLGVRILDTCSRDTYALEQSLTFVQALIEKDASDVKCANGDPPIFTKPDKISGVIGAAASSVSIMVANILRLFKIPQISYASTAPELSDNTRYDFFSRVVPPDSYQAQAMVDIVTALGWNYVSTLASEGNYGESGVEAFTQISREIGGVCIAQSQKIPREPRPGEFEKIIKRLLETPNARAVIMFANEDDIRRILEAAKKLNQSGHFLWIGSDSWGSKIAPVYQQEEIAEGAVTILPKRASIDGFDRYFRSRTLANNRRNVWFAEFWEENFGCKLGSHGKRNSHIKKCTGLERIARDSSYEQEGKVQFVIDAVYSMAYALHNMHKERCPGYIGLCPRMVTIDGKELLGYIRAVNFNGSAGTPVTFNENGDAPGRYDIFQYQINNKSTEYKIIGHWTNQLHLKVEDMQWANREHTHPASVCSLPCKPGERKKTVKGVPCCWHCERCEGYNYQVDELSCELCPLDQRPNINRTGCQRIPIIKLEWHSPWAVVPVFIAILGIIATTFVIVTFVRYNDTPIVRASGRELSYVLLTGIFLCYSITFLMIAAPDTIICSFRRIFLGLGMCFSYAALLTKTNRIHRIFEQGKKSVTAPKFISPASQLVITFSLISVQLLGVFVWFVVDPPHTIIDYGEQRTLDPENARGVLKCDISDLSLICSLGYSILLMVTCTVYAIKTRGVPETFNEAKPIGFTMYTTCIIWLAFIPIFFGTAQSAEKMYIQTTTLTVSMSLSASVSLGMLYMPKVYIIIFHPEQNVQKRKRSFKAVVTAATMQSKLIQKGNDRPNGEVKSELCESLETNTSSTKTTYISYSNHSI
Metabotropic glutamate receptor 6, sequence (P35349 whole entry): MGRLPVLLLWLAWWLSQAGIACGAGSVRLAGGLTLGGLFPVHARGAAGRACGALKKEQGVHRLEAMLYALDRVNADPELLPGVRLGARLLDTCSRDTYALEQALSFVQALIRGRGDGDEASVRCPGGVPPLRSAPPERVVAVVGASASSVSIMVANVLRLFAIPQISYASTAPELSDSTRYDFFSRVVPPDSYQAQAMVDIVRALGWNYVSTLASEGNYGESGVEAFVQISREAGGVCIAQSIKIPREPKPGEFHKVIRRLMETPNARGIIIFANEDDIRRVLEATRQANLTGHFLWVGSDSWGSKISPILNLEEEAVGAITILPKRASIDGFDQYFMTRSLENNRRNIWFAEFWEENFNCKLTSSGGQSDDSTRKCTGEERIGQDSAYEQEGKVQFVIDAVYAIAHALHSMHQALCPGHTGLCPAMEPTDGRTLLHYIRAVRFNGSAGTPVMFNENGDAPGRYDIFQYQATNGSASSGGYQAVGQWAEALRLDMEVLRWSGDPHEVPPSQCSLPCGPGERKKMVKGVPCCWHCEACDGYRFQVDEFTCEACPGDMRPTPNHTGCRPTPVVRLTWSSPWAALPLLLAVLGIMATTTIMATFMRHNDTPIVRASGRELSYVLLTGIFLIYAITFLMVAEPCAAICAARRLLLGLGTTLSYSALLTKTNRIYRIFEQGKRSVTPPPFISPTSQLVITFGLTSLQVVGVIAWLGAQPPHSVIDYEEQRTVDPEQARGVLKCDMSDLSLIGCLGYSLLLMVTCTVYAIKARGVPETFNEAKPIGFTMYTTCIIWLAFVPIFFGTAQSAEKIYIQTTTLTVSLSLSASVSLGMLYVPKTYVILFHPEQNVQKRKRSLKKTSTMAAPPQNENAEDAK
Sodium-dependent serotonin transporter, sequence (P31645 whole entry): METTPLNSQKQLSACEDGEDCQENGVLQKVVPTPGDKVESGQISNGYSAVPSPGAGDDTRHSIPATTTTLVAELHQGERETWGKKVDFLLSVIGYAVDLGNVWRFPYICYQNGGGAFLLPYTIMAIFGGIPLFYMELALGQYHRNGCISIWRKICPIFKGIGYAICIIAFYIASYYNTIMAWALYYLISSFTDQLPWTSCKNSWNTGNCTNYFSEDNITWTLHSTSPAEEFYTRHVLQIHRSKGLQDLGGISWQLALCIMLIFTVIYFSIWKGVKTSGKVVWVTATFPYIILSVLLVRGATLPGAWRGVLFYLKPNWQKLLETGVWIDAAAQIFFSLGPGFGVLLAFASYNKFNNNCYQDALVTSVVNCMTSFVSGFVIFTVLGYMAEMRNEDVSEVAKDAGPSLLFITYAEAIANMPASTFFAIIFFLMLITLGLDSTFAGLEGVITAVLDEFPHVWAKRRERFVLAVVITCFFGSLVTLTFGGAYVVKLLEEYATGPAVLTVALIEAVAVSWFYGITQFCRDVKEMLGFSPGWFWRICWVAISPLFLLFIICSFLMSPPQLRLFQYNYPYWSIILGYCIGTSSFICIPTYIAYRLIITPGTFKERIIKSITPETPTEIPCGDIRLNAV
Histamine H2 receptor, sequence (P25021 whole entry): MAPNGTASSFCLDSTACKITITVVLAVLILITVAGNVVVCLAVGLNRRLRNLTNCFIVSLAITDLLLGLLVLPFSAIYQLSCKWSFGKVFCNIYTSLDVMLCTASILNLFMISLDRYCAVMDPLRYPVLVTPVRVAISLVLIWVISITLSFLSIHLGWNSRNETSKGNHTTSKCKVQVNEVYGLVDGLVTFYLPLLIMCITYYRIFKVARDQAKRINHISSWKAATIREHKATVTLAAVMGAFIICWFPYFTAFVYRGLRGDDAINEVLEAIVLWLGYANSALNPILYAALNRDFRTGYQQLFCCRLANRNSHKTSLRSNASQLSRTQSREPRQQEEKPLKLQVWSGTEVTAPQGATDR
5-hydroxytryptamine receptor 1D, sequence (P28221 whole entry): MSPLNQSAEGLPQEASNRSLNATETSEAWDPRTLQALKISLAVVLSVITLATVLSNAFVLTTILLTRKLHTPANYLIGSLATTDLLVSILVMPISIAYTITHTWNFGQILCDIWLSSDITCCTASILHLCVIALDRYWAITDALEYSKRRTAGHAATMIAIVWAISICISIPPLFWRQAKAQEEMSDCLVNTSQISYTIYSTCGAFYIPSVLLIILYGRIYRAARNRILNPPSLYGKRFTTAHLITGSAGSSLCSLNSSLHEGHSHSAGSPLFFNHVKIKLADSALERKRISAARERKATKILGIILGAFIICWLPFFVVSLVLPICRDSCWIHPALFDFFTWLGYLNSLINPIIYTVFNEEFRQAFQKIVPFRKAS
Vasopressin V2 receptor, sequence (P30518 whole entry): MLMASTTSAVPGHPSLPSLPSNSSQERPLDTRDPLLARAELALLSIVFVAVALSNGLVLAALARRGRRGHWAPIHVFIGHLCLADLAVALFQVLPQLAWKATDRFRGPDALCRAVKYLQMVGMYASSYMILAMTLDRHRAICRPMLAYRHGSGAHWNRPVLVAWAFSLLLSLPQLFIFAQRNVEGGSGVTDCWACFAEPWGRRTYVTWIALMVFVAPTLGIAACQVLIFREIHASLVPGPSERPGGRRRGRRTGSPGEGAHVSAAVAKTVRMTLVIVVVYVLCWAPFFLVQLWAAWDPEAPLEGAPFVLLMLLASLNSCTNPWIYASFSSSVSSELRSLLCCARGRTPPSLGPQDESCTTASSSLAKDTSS

Row | SMILES | Ki [1] | Ki [2] | Ki (Histamine H1 receptor) | Ki [3] | Ki (Vasopressin V2 receptor) | Ki (Histamine H2 receptor) | Ki [4] | Ki (Cannabinoid receptor 1) | EC50 [5] | EC50 [6] | EC50 [7] | EC50 [8] | EC50 [9] | EC50 [10]
1 | N[C@@H](CCS(=O)(=O)O)C(=O)O (racemic) | > 10 µM | > 10 µM | > 10 µM | > 10 µM | > 10 µM | – | – | – | – | – | – | – | – | –
2 | N[C@@H]1CCSC1=O [D-homocysteine thiolactone] | > 10 µM | – | – | – | – | > 10 µM | > 10 µM | > 10 µM | – | – | – | – | – | –
3 | N[C@H](CCS(=O)(=O)O)C(=O)O [D-homocysteic acid] | > 10 µM | > 10 µM | > 10 µM | > 10 µM | > 10 µM | > 10 µM | > 10 µM | > 10 µM | – | – | – | – | – | –
4 | NC(CS(=O)O)C(=O)O (configuration not stated) [CAS_109] | > 10 µM | > 10 µM | > 10 µM | > 10 µM | > 10 µM | > 10 µM | > 10 µM | > 10 µM | > 10 µM | > 10 µM | > 10 µM | > 10 µM | > 10 µM | > 10 µM
5 | N[C@H]1CCSC1=O [NSC_134505] | > 10 µM | > 10 µM | – | – | – | > 10 µM | > 10 µM | > 10 µM | – | – | – | – | – | –
6 | CSCC[C@@H](N)C(=O)O [CAS_6137] | > 10 µM | > 10 µM | > 10 µM | > 10 µM | > 10 µM | > 10 µM | > 10 µM | > 10 µM | – | – | – | – | – | –
7 | N[C@H](CS(=O)(=O)O)C(=O)O [L-cysteic acid] | > 10 µM | – | > 10 µM | > 10 µM | > 10 µM | > 10 µM | > 10 µM | > 10 µM | > 10 µM | > 10 µM | > 10 µM | > 10 µM | > 10 µM | > 10 µM
8 | N[C@@H](CS)C(=O)O [CAS_5862] | > 10 µM | > 10 µM | > 10 µM | > 10 µM | > 10 µM | > 10 µM | > 10 µM | > 10 µM | – | – | – | – | – | –
9 | N[C@@H](CCS(=O)O)C(=O)O [L-homocysteine sulfinic acid] | – | > 10 µM | > 10 µM | > 10 µM | > 10 µM | > 10 µM | > 10 µM | > 10 µM | > 10 µM | 5.75 µM | > 10 µM | 6.17 µM | > 10 µM | > 10 µM
10 | NC(CSSCC(N)C(=O)O)C(=O)O (configuration not stated) [CAS_595] | > 10 µM | > 10 µM | > 10 µM | > 10 µM | > 10 µM | > 10 µM | > 10 µM | > 10 µM | – | – | – | – | – | –
11 | N[C@H](CCS(=O)O)C(=O)O [D-homocysteine sulfinic acid] | > 10 µM | > 10 µM | > 10 µM | > 10 µM | > 10 µM | > 10 µM | > 10 µM | > 10 µM | – | – | – | – | – | –
12 | N[C@@H](CCS)C(=O)O (racemic) [CAS_778] | > 10 µM | > 10 µM | > 10 µM | > 10 µM | > 10 µM | > 10 µM | > 10 µM | > 10 µM | – | – | – | – | – | –
